In PubChem BioAssay AID330 (DTP/NCI, 2004) one finds T/C data, which are given here for 19 molecules.

The experiment has as its system P388 leukemia ip, CD2F1 mice, survival T/C. In words: NCI In Vivo Anticancer Drug Screen. Data for tumor model P388 Leukemia (intraperitoneal) in CD2F1 (CDF1) mice. As to conditions: endpoint: median survival time, higher = longer survival. The procedure, abridged: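 Mice carrying the transplanted tumor received test compound or vehicle. Survival was recorded in each group, and the value is the treated-group measurement divided by that of the vehicle-treated control group.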

[1] abbreviates: dose: 50.0 mg/kg/injection, schedule: Q01DX005 (ip), vehicle: saline with Tween-80.
Where [2] appears, read: dose: 100.0 mg/kg/injection, schedule: Q01DX005 (ip), vehicle: saline with Tween-80.
The mark [3] stands for this setting: dose: 200.0 mg/kg/injection, schedule: Q01DX005 (ip), vehicle: saline with Tween-80.
[4] abbreviates: dose: 15.0 mg/kg/injection, schedule: Q01DX005 (ip), vehicle: saline.
The mark [5] stands for this setting: dose: 30.0 mg/kg/injection, schedule: Q01DX005 (ip), vehicle: saline.
Where [6] appears, read: dose: 50.0 mg/kg/injection, schedule: Q01DX005 (ip), vehicle: Klucel (hydroxypropylcellulose) (HPC).
Where [7] appears, read: dose: 100.0 mg/kg/injection, schedule: Q01DX005 (ip), vehicle: Klucel (hydroxypropylcellulose) (HPC).
Where [8] appears, read: dose: 200.0 mg/kg/injection, schedule: Q01DX005 (ip), vehicle: Klucel (hydroxypropylcellulose) (HPC).
Setting [9] is: dose: 50.0 mg/kg/injection, schedule: Q01DX009 (ip), vehicle: saline.
The mark [10] stands for this setting: dose: 50.0 mg/kg/injection, schedule: Q01DX009 (ip), vehicle: saline with Tween-80.
Where [11] appears, read: dose: 100.0 mg/kg/injection, schedule: Q01DX009 (ip), vehicle: saline with Tween-80.
Setting [12] is: dose: 200.0 mg/kg/injection, schedule: Q01DX009 (ip), vehicle: saline with Tween-80.

“And” between values parts separate entries of the source, which are not always exact repeats. Equal values may be shown once. Inconclusive results and toxic doses are left out. Bridge positions count the residues as written; N and C are the ends. Peptide text beside a SMILES is read from it. I, II: the chains in the order shown.

`CC(C)(C)C1=CP(=O)(c2ccccc2)C=C(C(C)(C)C)N1`: the T/C is 106 % of control under setting [1], 108 % of control under setting [2] and 98 % of control under setting [3].
As for `CN(C)CC(CN(C)C)C(=O)/C=C/c1ccc(Cl)cc1Cl`, the T/C (dose: 7.5 mg/kg/injection, schedule: Q01DX005 (ip), vehicle: saline) is 104 % of control; the T/C under setting [4] is 97 % of control; the T/C under setting [5] was 100 % of control.
Consider `CC1=CC(=O)C2(OC3OC(C)C(O)C(O)C3O)C=COC(OC3OC(CO)C(O)C(O)C3O)C12` (centres undefined), for which the T/C was 98 % of control (dose: 12.5 mg/kg/injection, schedule: Q01DX005 (ip), vehicle: Klucel (hydroxypropylcellulose) (HPC)); 95 % of control (dose: 25.0 mg/kg/injection, schedule: Q01DX005 (ip), vehicle: Klucel (hydroxypropylcellulose) (HPC)); 95 % of control under setting [6]; 95 % of control under setting [7]; 95 % of control under setting [8].
In the case of `COCCN1C(N)=C(C#N)N=C2CCCC(N=C(C#N)C#N)=C21`, the T/C is 100 % of control under setting [1], 107 % of control under setting [2] and 101 % of control under setting [3].
Take `O=S(=O)(Cl)C(Cl)(Cl)Cl`: the T/C runs as follows: (dose: 25.0 mg/kg/injection, schedule: Q01DX009 (ip), vehicle: saline sonified) 95 % of control; (dose: 50.0 mg/kg/injection, schedule: Q01DX009 (ip), vehicle: saline sonified) 100 % of control; (dose: 100.0 mg/kg/injection, schedule: Q01DX009 (ip), vehicle: saline sonified) 86 % of control.
Take `COc1ccc(C(=O)CCS(=O)(=O)CCC(=O)c2ccc(OC)cc2)cc1`: the T/C runs as follows: (dose: 100.0 mg/kg/injection, schedule: Q04DX003 (ip), vehicle: saline) 93 % of control; (dose: 200.0 mg/kg/injection, schedule: Q04DX003 (ip), vehicle: saline) 91 % of control; (dose: 400.0 mg/kg/injection, schedule: Q04DX003 (ip), vehicle: saline) 91 % of control.
Regarding `NC1(C(=O)O)CCc2ccccc2C1` (centres undefined), the T/C was 104 % of control under setting [6], 102 % of control under setting [7] and 100 % of control under setting [8].
Turning to `O=C(NCCCl)Oc1cccn(C(=O)NCCCl)c1=O`, the T/C (dose: 12.5 mg/kg/injection, schedule: Q01DX009 (sc), vehicle: saline with Tween-80) was 106 % of control and 111 % of control; the T/C (dose: 25.0 mg/kg/injection, schedule: Q01DX009 (ip), vehicle: saline) was 111 % of control and 113 % of control; the T/C (dose: 25.0 mg/kg/injection, schedule: Q01DX009 (sc), vehicle: saline with Tween-80) was 100 % of control and 115 % of control; the T/C under setting [9] was 112 % of control and 118 % of control; the T/C (dose: 50.0 mg/kg/injection, schedule: Q01DX009 (sc), vehicle: saline with Tween-80) was 102 % of control and 115 % of control; the T/C (dose: 100.0 mg/kg/injection, schedule: Q01DX009 (sc), vehicle: saline with Tween-80) was 109 % of control and 115 % of control. For the same molecule, the T/C reads like this: (dose: 200.0 mg/kg/injection, schedule: Q01DX009 (sc), vehicle: saline with Tween-80) 111 % of control and 123 % of control; (dose: 400.0 mg/kg/injection, schedule: Q01DX009 (sc), vehicle: saline with Tween-80) 95 % of control.
With `[O]=[Ge]([c]1ccccc1)[c]1ccccc1`, the T/C by setting is: under setting [9], 95 % of control; (dose: 100.0 mg/kg/injection, schedule: Q01DX009 (ip), vehicle: saline) 96 % of control; (dose: 200.0 mg/kg/injection, schedule: Q01DX009 (ip), vehicle: saline) 92 % of control.
Consider `N=C(N)c1ccc(/C=C/c2ccc(C(=N)N)cc2)cc1`, for which the T/C (dose: 8.0 mg/kg/injection, schedule: Q01DX009 (ip), vehicle: saline with Tween-80) is 119 % of control; the T/C (dose: 16.0 mg/kg/injection, schedule: Q01DX009 (ip), vehicle: saline with Tween-80) is 122 % of control and 124 % of control; the T/C (dose: 32.0 mg/kg/injection, schedule: Q01DX009 (ip), vehicle: saline with Tween-80) was 124 % of control; the T/C (dose: 64.0 mg/kg/injection, schedule: Q01DX009 (ip), vehicle: Klucel (hydroxypropylcellulose) (HPC)) was 177 % of control.
Consider `CCOC(=O)NC(=S)Nc1ccsc1`, for which the T/C reads like this: under setting [10], 99 % of control; under setting [11], 104 % of control; under setting [12], 102 % of control.
In the case of `COc1ccc(N=C2C(=Nc3ccc(OC)cc3)N(S(=O)(=O)c3ccc(C)cc3)C(=S)N2c2ccccc2)cc1`, the T/C was 100 % of control (dose: 50.0 mg/kg/injection, schedule: Q01DX005 (ip), vehicle: Klucel + Tween-80) and 98 % of control (dose: 100.0 mg/kg/injection, schedule: Q01DX005 (ip), vehicle: Klucel + Tween-80).
With `Nc1nc(-c2cc(-c3cccc([N+](=O)[O-])c3Cl)nc(N)n2)cc(-c2cccc([N+](=O)[O-])c2Cl)n1`, the T/C (dose: 60.0 mg/kg/injection, schedule: Q01DX005 (ip), vehicle: saline with Tween-80) was 105 % of control; the T/C (dose: 120.0 mg/kg/injection, schedule: Q01DX005 (ip), vehicle: saline with Tween-80) was 101 % of control; the T/C (dose: 240.0 mg/kg/injection, schedule: Q01DX005 (ip), vehicle: saline with Tween-80) is 100 % of control.
On to `CC(C)CC(NC(=O)C(N)CSSCC(N)C(=O)NC(CC(C)C)C(=O)O)C(=O)O` (stereo not drawn) (I: H-Cys-Leu-OH / II: H-Cys-Leu-OH; disulfide I:1-II:1; configuration not given here), for which the T/C is 106 % of control under setting [6], 113 % of control under setting [7] and 92 % of control under setting [8].
With `CN(C)CC(CN(C)C)C(=O)c1ccc2c(c1)OCO2`, the T/C is, setting by setting: under setting [4], 122 % of control; under setting [5], 117 % of control; (dose: 60.0 mg/kg/injection, schedule: Q01DX005 (ip), vehicle: saline) 119 % of control.
`O=C(OCC(Cl)(Cl)Cl)N1[C@@H]2C=C[C@@H](N1C(=O)OCC(Cl)(Cl)Cl)[C@@]13CC(OCc4ccc(Br)cc4)CC21O3` (some centres undefined): the T/C under setting [6] is 105 % of control, the T/C under setting [7] is 95 % of control and the T/C under setting [8] is 95 % of control.
With `CSC(=S)NNC(C)c1nccc2ccccc12` (centres undefined), the T/C is 109 % of control under setting [1], 114 % of control under setting [2] and 108 % of control under setting [3].
On to `O=C(NC1CCCCC1)NS(=O)(=O)c1ccc(CCNC(=O)c2cccc3c2OCC3)cc1`, for which the T/C is, setting by setting: under setting [10], 100 % of control; under setting [11], 99 % of control; under setting [12], 98 % of control.
Consider `N=c1nc(-c2ccccc2)c(-c2ccccc2)nn1CC(=O)c1ccccc1`, for which the T/C reads like this: under setting [6], 112 % of control; under setting [7], 101 % of control; under setting [8], 94 % of control.
